Counter-ions that a name gives are not always drawn.
How the values were obtained:
BACE2 [1] = molecular target: T1, BACE2 (Homo sapiens, UniProt Q9Y5Z0); assay: Assay A: binding studies using SPR based methods, immobilised BACE2; conditions: CM5 chip, immobilised BACE2 enzyme ectodomain, acetate buffer pH 4.6, 4% DMSO
T1 construct: BACE2 enzyme ectodomain (derived from plasmid “pET17b-T7-hu proBACE2”); T7 (N); made in house
T1 sequence (Q9Y5Z0 63-473 limits assumed): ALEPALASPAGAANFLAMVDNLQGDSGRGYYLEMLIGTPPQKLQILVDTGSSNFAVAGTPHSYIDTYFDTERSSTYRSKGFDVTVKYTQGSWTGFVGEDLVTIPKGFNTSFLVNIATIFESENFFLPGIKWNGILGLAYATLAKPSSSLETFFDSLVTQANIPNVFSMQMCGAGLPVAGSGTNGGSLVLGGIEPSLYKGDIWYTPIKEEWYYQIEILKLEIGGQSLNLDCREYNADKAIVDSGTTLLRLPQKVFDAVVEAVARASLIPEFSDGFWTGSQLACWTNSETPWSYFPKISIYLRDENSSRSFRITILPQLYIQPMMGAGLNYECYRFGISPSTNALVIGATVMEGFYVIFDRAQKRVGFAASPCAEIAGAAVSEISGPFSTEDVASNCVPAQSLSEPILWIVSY

BACE2 [2] = molecular target: T2, BACE2 (Rattus norvegicus, UniProt Q6IE75); assay: Assay for BACE inhibition by measuring cellular TMEM27 cleavage; type: cell-based; conditions: INS-TMEM27 (INS1e-derived) cells, ELISA of shed human TMEM27 in supernatant;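 also: inhibitor added 2 h before doxycycline-induced hTMEM27 expression, supernatant collected after further 46 h, endogenous BACE2 activity read as reduced TMEM27 shedding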
T2 construct: endogenous cellular BACE2 in the Ins1e rat cell line; endogenous in cells; host or cells: INS-TMEM27 (INS1e-derived rat cell line with doxycycline-inducible full-length hTMEM27)
T2 sequence (Q6IE75 63-514): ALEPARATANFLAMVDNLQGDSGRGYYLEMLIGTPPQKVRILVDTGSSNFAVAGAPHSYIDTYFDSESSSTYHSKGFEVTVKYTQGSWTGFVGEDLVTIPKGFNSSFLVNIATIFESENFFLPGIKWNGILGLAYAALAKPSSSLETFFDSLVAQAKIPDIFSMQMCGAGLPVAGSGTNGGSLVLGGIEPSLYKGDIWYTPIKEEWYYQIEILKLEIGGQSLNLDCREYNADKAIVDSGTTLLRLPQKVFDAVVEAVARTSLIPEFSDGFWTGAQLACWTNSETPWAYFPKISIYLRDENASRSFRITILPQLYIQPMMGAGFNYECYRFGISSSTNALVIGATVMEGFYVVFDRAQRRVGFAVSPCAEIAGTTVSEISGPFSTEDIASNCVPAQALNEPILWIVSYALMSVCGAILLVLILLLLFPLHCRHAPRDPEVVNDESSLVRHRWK

BACE1 [3] = molecular target: T3, BACE1 (Homo sapiens, UniProt P56817); assay: Cellular Abeta-lowering assay; type: cell-based; set-up: endogenous in cells; host or cells: HEK293 stably transfected with human APP695 wt; conditions: HEK293 cells stably transfected with human APP wt (APP695), Aβ40 ELISA of supernatant after 18-20 hrs
BACE1 [4] = molecular target: T3, BACE1; assay: Assay A: binding studies using SPR based methods, immobilised BACE1; set-up: 6his-tagged full length BACE 1 expressed in SF9 cells; 6His; made in house; host or cells: SF9 insect cells; conditions: CM5 chip, immobilised 6his-tagged full length BACE 1, acetate buffer pH 4.6, 4% DMSO;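 also: KD from a 1:1 kinetic fit (koff/kon) of real-time association and dissociation curves, or for fast binders from end-of-association equilibrium responses plotted against log concentration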

T3 sequence (P56817 46-501): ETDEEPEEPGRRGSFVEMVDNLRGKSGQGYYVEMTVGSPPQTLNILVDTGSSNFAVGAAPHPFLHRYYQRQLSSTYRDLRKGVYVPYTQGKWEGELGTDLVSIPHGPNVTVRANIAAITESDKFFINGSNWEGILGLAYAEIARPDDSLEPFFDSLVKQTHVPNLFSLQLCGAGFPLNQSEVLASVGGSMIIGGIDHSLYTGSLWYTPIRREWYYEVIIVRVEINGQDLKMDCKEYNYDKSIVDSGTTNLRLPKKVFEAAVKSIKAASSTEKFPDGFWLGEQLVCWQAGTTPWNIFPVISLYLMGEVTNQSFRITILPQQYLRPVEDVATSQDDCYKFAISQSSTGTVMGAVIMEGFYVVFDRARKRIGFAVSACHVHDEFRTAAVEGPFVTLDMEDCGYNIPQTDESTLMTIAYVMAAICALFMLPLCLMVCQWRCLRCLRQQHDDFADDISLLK

Row | Kd (BACE2 [1]) [nM] | IC50 (BACE2 [2]) [nM] | IC50 (BACE1 [3]) [nM] | Kd (BACE1 [4]) [nM] | SMILES
1 | 77 | 83 | 140 | 261 | COCC(=O)Nc1ccc(F)c([C@]2(C)COCC(N)=N2)c1 [Example 84, N-[3-((R)-5-amino-3-methyl-3,6-dihydro-2H-[1,4]oxazin-3-yl)-4-fluoro-phenyl]-2-methoxy-acetamide formate]
2 | 3450 | 560 | 2760 | > 10000 | CC(C)C(=O)Nc1ccc(F)c([C@]2(C)COCC(N)=N2)c1 [Example 88, N-[3-((R)-5-amino-3-methyl-3,6-dihydro-2H-[1,4]oxazin-3-yl)-4-fluoro-phenyl]-isobutyramide formate]
3 | 150 | 1220 | 220 | 148 | CC(F)(F)C(=O)Nc1ccc(F)c([C@]2(C)COCC(N)=N2)c1 [Example 90, N-[3-((R)-5-amino-3-methyl-3,6-dihydro-2H-[1,4]oxazin-3-yl)-4-fluoro-phenyl]-2,2-difluoro-propionamide formate]
4 | 1140 | 95 | 1460 | 994 | C[C@@]1(c2cc(NC(=O)C(F)F)ccc2F)COCC(N)=N1 [Example 91, N-[3-((R)-5-amino-3-methyl-3,6-dihydro-2H-[1,4]oxazin-3-yl)-4-fluoro-phenyl]-2,2-difluoro-acetamide formate]
5 | 1070 | 1090 | 400 | 2220 | CC(C)(F)C(=O)Nc1ccc(F)c([C@]2(C)COCC(N)=N2)c1 [Example 92, N-[3-((R)-5-amino-3-methyl-3,6-dihydro-2H-[1,4]oxazin-3-yl)-4-fluoro-phenyl]-2-fluoro-2-methyl-propionamide formate]
6 | 3850 | 3390 | 6820 | > 10000 | CC(=O)Nc1ccc(F)c([C@]2(C)COCC(N)=N2)c1 [Example 93, N-[3-((R)-5-amino-3-methyl-3,6-dihydro-2H-[1,4]oxazin-3-yl)-4-fluoro-phenyl]-acetamide formate]
7 | 1950 | 1080 | 1400 | 2700 | CCC(=O)Nc1ccc(F)c([C@]2(C)COCC(N)=N2)c1 [Example 94, N-[3-((R)-5-amino-3-methyl-3,6-dihydro-2H-[1,4]oxazin-3-yl)-4-fluoro-phenyl]-propionamide formate]
8 | 4 | 1 | 7 | 14 | Cc1cc(Cl)cnc1C(=O)Nc1ccc(F)c([C@]2(C)COCC(N)=N2)c1 [Example 98, 5-chloro-3-methyl-pyridine-2-carboxylic acid [3-((R)-5-amino-3-methyl-3,6-dihydro-2H-[1,4]oxazin-3-yl)-4-fluoro-phenyl]-amide]
9 | 8 | 3 | 17 | 46 | C[C@@]1(c2cc(NC(=O)c3ccc(F)cn3)ccc2F)COCC(N)=N1 [Example 99, 5-fluoro-pyridine-2-carboxylic acid [3-((R)-5-amino-3-methyl-3,6-dihydro-2H-[1,4]oxazin-3-yl)-4-fluoro-phenyl]-amide]
